# According to US20090181898A1, “ABUSE-RESISTANT A[…]” (SHIRE LLC, priority 2002, published 2009):
# Test: Clinical pharmacokinetics, 25 and 75 mg, compared to Adderall XR and Dexedrine Spansule
# Details: human, in vivo, po; for AUC(0-inf): L-lysine-d-amphetamine intact conjugate AUCinf; for AUC(0-t): L-lysine-d-amphetamine intact conjugate AUClast; for Cmax: L-lysine-d-amphetamine intact conjugate Cmax; for half-life: L-lysine-d-amphetamine intact conjugate T1/2, human; for Tmax: L-lysine-d-amphetamine intact conjugate Tmax; for concentration at 0 h / concentration at 0.5 h / concentration at 1 h / concentration at 2 h / concentration at 3 h / concentration at 4 h / concentration at 5 h / concentration at 6 h / concentration at 7 h / concentration at 8 h / concentration at 10 h / concentration at 12 h / concentration at 16 h / concentration at 24 h / concentration at 48 h / concentration at 72 h: L-lysine-d-amphetamine intact conjugate concentration
# [1] = 25 mg, oral 25 mg L-lysine-d-amphetamine, mean
# [2] = 25 mg, oral 25 mg L-lysine-d-amphetamine, individual subjects
# [3] = 75 mg, oral 75 mg L-lysine-d-amphetamine, mean
# [4] = 75 mg, oral 75 mg L-lysine-d-amphetamine, individual subjects
compound,measurement,setting,value
"CC(Cc1ccccc1)NC(=O)C(N)CCCCN [L-lysine-d-amphetamine, 2,6-diaminohexanoic acid-(1-methyl-2-phenylethyl)-amide]",AUC(0-inf),[1],13.5 ng·h/mL
same,AUC(0-t),[1],11.3 ng·h/mL
same,Cmax,[1],11.6 ng/mL
same,half-life,[2],0.47 h
same,half-life,[1],0.419 h
same,Tmax,[2],1 h
same,Tmax,[1],1.05 h
same,concentration at 0 h,[2],0 ng/mL
same,concentration at 0 h,[1],0 ng/mL
same,concentration at 0.5 h,[1],5.1 ng/mL
same,concentration at 1 h,[1],11.2 ng/mL
same,concentration at 2 h,[1],2.2 ng/mL
same,concentration at 3 h,[2],0 ng/mL
same,concentration at 3 h,[1],0 ng/mL
same,concentration at 4 h,[2],0 ng/mL
same,concentration at 4 h,[1],0 ng/mL
same,concentration at 5 h,[2],0 ng/mL
same,concentration at 5 h,[1],0 ng/mL
same,concentration at 6 h,[2],0 ng/mL
same,concentration at 6 h,[1],0 ng/mL
same,concentration at 7 h,[2],0 ng/mL
same,concentration at 7 h,[1],0 ng/mL
same,concentration at 8 h,[2],0 ng/mL
same,concentration at 8 h,[1],0 ng/mL
same,concentration at 10 h,[2],0 ng/mL
same,concentration at 10 h,[1],0 ng/mL
same,concentration at 12 h,[2],0 ng/mL
same,concentration at 12 h,[1],0 ng/mL
same,concentration at 16 h,[2],0 ng/mL
same,concentration at 16 h,[1],0 ng/mL
same,concentration at 24 h,[2],0 ng/mL
same,concentration at 24 h,[1],0 ng/mL
same,concentration at 48 h,[2],0 ng/mL
same,concentration at 48 h,[1],0 ng/mL
same,concentration at 72 h,[2],0 ng/mL
same,concentration at 72 h,[1],0 ng/mL
same,AUC(0-inf),[3],59.5 ng·h/mL
same,AUC(0-t),[3],58.1 ng·h/mL
same,Cmax,[3],53.6 ng/mL
same,half-life,[3],0.534 h
same,Tmax,[4],1 h
same,Tmax,[3],1.05 h
same,concentration at 0 h,[4],0 ng/mL
same,concentration at 0 h,[3],0 ng/mL
same,concentration at 0.5 h,[3],20.5 ng/mL
same,concentration at 1 h,[3],53 ng/mL
same,concentration at 2 h,[3],9.1 ng/mL
same,concentration at 3 h,[3],2.6 ng/mL
same,concentration at 4 h,[3],0.8 ng/mL
same,concentration at 5 h,[4],0 ng/mL
same,concentration at 5 h,[3],0 ng/mL
same,concentration at 6 h,[4],0 ng/mL
same,concentration at 6 h,[3],0 ng/mL
same,concentration at 7 h,[4],0 ng/mL
same,concentration at 7 h,[3],0 ng/mL
